For the assay, the target named is Jack bean urease (Canavalia ensiformis, UniProt P07374). Description: indophenol ammonia assay, […] nm. It counts as biochemical.

We go through 3 compounds from paper PMC3973943, “Microwave-assisted synthesis of some hybrid molecules containing penicillanic acid or cephalosporanic acid moieties and investigation of their biological activities” (Medicinal Chemistry Research, 2013).

For orientation: IC50 means the concentration that gives 50% inhibition. Low readings indicate greater potency in that assay, high ones weaker potency in that assay.

Chain of Jack bean urease (P07374 whole entry): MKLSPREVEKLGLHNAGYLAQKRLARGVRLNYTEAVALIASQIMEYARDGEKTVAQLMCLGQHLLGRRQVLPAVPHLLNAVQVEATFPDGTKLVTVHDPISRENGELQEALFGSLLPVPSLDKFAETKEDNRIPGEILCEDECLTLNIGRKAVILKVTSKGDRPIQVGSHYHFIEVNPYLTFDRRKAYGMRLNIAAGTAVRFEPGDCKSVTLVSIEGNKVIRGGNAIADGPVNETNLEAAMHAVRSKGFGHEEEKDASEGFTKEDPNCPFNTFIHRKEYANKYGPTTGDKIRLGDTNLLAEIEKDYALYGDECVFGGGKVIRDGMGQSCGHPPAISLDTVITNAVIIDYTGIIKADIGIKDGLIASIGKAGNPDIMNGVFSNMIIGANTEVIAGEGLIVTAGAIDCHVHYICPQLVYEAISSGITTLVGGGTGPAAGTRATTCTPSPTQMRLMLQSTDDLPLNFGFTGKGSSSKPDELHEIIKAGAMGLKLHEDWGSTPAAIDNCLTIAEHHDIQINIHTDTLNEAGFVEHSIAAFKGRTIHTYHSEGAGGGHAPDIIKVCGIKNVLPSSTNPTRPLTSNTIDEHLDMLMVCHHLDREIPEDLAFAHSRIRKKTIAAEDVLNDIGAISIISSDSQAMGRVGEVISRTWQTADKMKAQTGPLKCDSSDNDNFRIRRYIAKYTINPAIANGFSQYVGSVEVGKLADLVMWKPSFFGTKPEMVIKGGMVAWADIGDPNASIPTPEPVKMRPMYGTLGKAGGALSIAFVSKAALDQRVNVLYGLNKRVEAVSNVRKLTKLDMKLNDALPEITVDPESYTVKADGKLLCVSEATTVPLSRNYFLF

Compound `NC(N)=S` [Thiourea, reference compound] had an IC50 of 717 µM. With `CCOC(=O)N1CCN(c2ccc(NCc3nn(CN[C@@H]4C(=O)N5C(C(=O)O)=C(COC(C)=O)CS[C@H]45)c(=S)n3-c3ccc(F)cc3)cc2F)CC1` [compound 15, ({[(6R,7R)-3-[(Acetyloxy)methyl]-7-({[3-[({4-[4-(ethoxycarbonyl)piperazin-1-yl]-3-fluorophenyl}amino)methyl]-4-(4-fluorophenyl)-5-thioxo-4,5-dihydro-1H-1,2,4-triazol-1-yl]methyl}amino)-8-oxo-5-thia-1-azabicyclo[4.2.0]oct-2-en-2-yl]carbonyl}oxy)triethyl ammonium], half-maximal inhibition (IC50) required 6.15 µM.

Compound `CCOC(=O)N1CCN(c2ccc(NCc3nn(CN[C@@H]4C(=O)N5[C@@H]4SC(C)(C)[C@@H]5C(=O)O)c(=S)n3-c3ccccc3)cc2F)CC1` [compound 17, [({(5R,6R)-6-[({3-[({4-[4-(Ethoxycarbonyl)piperazin-1-yl]-3-fluorophenyl}amino)methyl]-4-phenyl-5-thioxo-4,5-dihydro-1H-1,2,4-triazol-1-yl}methyl)amino]-3,3-dimethyl-7-oxo-4-thia-1-azabicyclo[3.2.0]hept-2-yl}carbonyl)oxy](triethyl)ammonium] gave an IC50 of 66.3 µM.
